Data from ChEMBL document CHEMBL3885881, “DrugMatrix”.

Organism: Rattus norvegicus
Assay: DrugMatrix - Regimen: Daily Repeat
Format: toxicity, organism-based, Sprague-Dawley
Design: regimen Daily Repeat, gender Male, age 6-8 weeks
Conditions: in vivo, iv, […], vehicle 100 % SALINE; for ALANINE AMINOTRANSFERASE / ALBUMIN / ALKALINE PHOSPHATASE / ASPARTATE AMINOTRANSFERASE / BLOOD UREA NITROGEN / CARBON DIOXIDE / CHLORIDE / CHOLESTEROL / CREATINE PHOSPHOKINASE / CREATININE / GLUCOSE / LACTATE DEHYDROGENASE / LIPASE / PHOSPHORUS / POTASSIUM / SODIUM / TOTAL BILIRUBIN / TOTAL PROTEIN / URIC ACID: tissue Plasma; for ABSOLUTE BASOPHIL / ABSOLUTE EOSINOPHIL / ABSOLUTE LYMPHOCYTE / ABSOLUTE MONOCYTE / ABSOLUTE SEGMENTED NEUTROPHIL / BASOPHIL / EOSINOPHIL / ERYTHROCYTE COUNT / HEMATOCRIT / HEMOGLOBIN / LEUKOCYTE COUNT / LYMPHOCYTE / MEAN CORPUSCULAR HEMOGLOBIN / MEAN CORPUSCULAR HEMOGLOBIN CONCENTRATION / MEAN CORPUSCULAR VOLUME / MONOCYTE / NEUTROPHIL / NUCLEATED RED BLOOD CELLS / PLATELET COUNT: tissue Blood
[1] = 72 h, dose 0.24 mg/Kg, dose level Low, time 3 day
[2] = 72 h, dose 2.5 mg/Kg, dose level High, time 3 day
[3] = 120 h, dose 0.24 mg/Kg, dose level Low, time 5 day
[4] = 120 h, dose 2.5 mg/Kg, dose level High, time 5 day

## CC[C@@]1(O)C(=O)OCc2c1cc1n(c2=O)Cc2cc3ccccc3nc2-1 [CAMPTOTHECIN]
[1]
  ALANINE AMINOTRANSFERASE: 60 u/L
  ALBUMIN: 4.3 G/DL
  ALKALINE PHOSPHATASE: 408 u/L
  ASPARTATE AMINOTRANSFERASE: 104.67 u/L
  BLOOD UREA NITROGEN: 12.67 mg/dL
  CARBON DIOXIDE: 33.33 mmol/L
  CHLORIDE: 101.33 MEQ/L
  CHOLESTEROL: 75 mg/dL
  CREATINE PHOSPHOKINASE: 727.67 u/L
  CREATININE: 0.15 mg/dL
  GLUCOSE: 138.33 mg/dL
  LACTATE DEHYDROGENASE: 388 u/L
  LIPASE: 11 u/L
  PHOSPHORUS: 11.93 mg/dL
  POTASSIUM: 6.3 MEQ/L
  SODIUM: 145.33 MEQ/L
  TOTAL BILIRUBIN: 0.17 mg/dL
  TOTAL PROTEIN: 5.93 G/DL
  URIC ACID: 1.33 mg/dL
[2]
  ALANINE AMINOTRANSFERASE: 37.33 u/L
  ALBUMIN: 4.2 G/DL
  ALKALINE PHOSPHATASE: 430.33 u/L
  ASPARTATE AMINOTRANSFERASE: 79.33 u/L
  BLOOD UREA NITROGEN: 13 mg/dL
  CARBON DIOXIDE: 33 mmol/L
  CHLORIDE: 101.33 MEQ/L
  CHOLESTEROL: 73.67 mg/dL
  CREATINE PHOSPHOKINASE: 318.33 u/L
  CREATININE: 0.16 mg/dL
  GLUCOSE: 153.33 mg/dL
  LACTATE DEHYDROGENASE: 136.33 u/L
  LIPASE: 10.33 u/L
  PHOSPHORUS: 10.83 mg/dL
  POTASSIUM: 5.76 MEQ/L
  SODIUM: 142.73 MEQ/L
  TOTAL BILIRUBIN: 0.17 mg/dL
  TOTAL PROTEIN: 6.1 G/DL
  URIC ACID: 1.63 mg/dL
[3]
  ABSOLUTE BASOPHIL: 0 CELLS/uL
  ABSOLUTE EOSINOPHIL: 45.33 CELLS/uL
  ABSOLUTE LYMPHOCYTE: 11856.67 CELLS/uL
  ABSOLUTE MONOCYTE: 131.67 CELLS/uL
  ABSOLUTE SEGMENTED NEUTROPHIL: 1233 CELLS/uL
  BASOPHIL: 0%
  EOSINOPHIL: 0.33%
  ERYTHROCYTE COUNT: 5.71 x10E6/uL
  HEMATOCRIT: 35.9%
  HEMOGLOBIN: 14.03 G/DL
  LEUKOCYTE COUNT: 13.27 x10E3/uL
  LYMPHOCYTE: 89.33%
  MEAN CORPUSCULAR HEMOGLOBIN: 24.57 pg
  MEAN CORPUSCULAR HEMOGLOBIN CONCENTRATION: 39.07 G/DL
  MEAN CORPUSCULAR VOLUME: 62.87 fL
  MONOCYTE: 1%
  NEUTROPHIL: 9.33%
  NUCLEATED RED BLOOD CELLS: 0 /100WBC
  PLATELET COUNT: 1215 x10E3/uL
  ALANINE AMINOTRANSFERASE: 43.33 u/L
  ALBUMIN: 4.03 G/DL
  ALKALINE PHOSPHATASE: 352 u/L
  ASPARTATE AMINOTRANSFERASE: 70 u/L
  BLOOD UREA NITROGEN: 14.67 mg/dL
  CARBON DIOXIDE: 29.33 mmol/L
  CHLORIDE: 102 MEQ/L
  CHOLESTEROL: 64.33 mg/dL
  CREATINE PHOSPHOKINASE: 241.67 u/L
  CREATININE: 0.18 mg/dL
  GLUCOSE: 201.67 mg/dL
  LACTATE DEHYDROGENASE: 147.33 u/L
  LIPASE: 10.33 u/L
  PHOSPHORUS: 11.03 mg/dL
  POTASSIUM: 5.31 MEQ/L
  SODIUM: 141.3 MEQ/L
  TOTAL BILIRUBIN: 0.2 mg/dL
  TOTAL PROTEIN: 5.93 G/DL
  URIC ACID: 1.33 mg/dL
[4]
  ABSOLUTE BASOPHIL: 0 CELLS/uL
  ABSOLUTE EOSINOPHIL: 0 CELLS/uL
  ABSOLUTE LYMPHOCYTE: 7405.33 CELLS/uL
  ABSOLUTE MONOCYTE: 102.67 CELLS/uL
  ABSOLUTE SEGMENTED NEUTROPHIL: 225.33 CELLS/uL
  BASOPHIL: 0%
  EOSINOPHIL: 0%
  ERYTHROCYTE COUNT: 5.35 x10E6/uL
  HEMATOCRIT: 31.67%
  HEMOGLOBIN: 12.13 G/DL
  LEUKOCYTE COUNT: 7.73 x10E3/uL
  LYMPHOCYTE: 95.67%
  MEAN CORPUSCULAR HEMOGLOBIN: 22.77 pg
  MEAN CORPUSCULAR HEMOGLOBIN CONCENTRATION: 38.33 G/DL
  MEAN CORPUSCULAR VOLUME: 59.3 fL
  MONOCYTE: 1.33%
  NEUTROPHIL: 3%
  NUCLEATED RED BLOOD CELLS: 0 /100WBC
  PLATELET COUNT: 1318.33 x10E3/uL
  ALANINE AMINOTRANSFERASE: 42.67 u/L
  ALBUMIN: 4.03 G/DL
  ALKALINE PHOSPHATASE: 247 u/L
  ASPARTATE AMINOTRANSFERASE: 101 u/L
  BLOOD UREA NITROGEN: 17 mg/dL
  CARBON DIOXIDE: 22.33 mmol/L
  CHLORIDE: 103.33 MEQ/L
  CHOLESTEROL: 56 mg/dL
  CREATINE PHOSPHOKINASE: 674.67 u/L
  CREATININE: 0.2 mg/dL
  GLUCOSE: 184 mg/dL
  LACTATE DEHYDROGENASE: 581 u/L
  LIPASE: 10.33 u/L
  PHOSPHORUS: 12.4 mg/dL
  POTASSIUM: 6.08 MEQ/L
  SODIUM: 142.1 MEQ/L
  TOTAL BILIRUBIN: 0.13 mg/dL
  TOTAL PROTEIN: 6.03 G/DL
  URIC ACID: 1.8 mg/dL
